In one experiment the test system is H. influenzae. Kind of experiment: drug sensitivity test of the pathogenic bacterium from blood culture. The format is cell-based, Haemophilus influenzae. Conditions: Case 2, isolate from blood specimen sampled before antibiotic treatment. The procedure: (§1) According to Step 1 to Step 4 of Example 1, a pathogenic bacterium rapid quantification test using sepsis patient's specimens (EDTA blood collection tube, 2 mL) was carried out. […] Blood was sampled before treatment with an antibiotic (pretreatment), and 24 hours (after 24 hrs.) and 72 hours (after 72 hrs.) after administration of the antibiotic. At the three points, a pathogenic bacterium rapid quantification test was carried out together with measurement of body temperature, white blood cell count, CRP, presepsin and IL-6. Furthermore, a blood specimen sampled before the antibiotic treatment was subjected to a blood culture method to identify a pathogenic bacterium and subjected to a drug sensitivity test. General information about individual cases is as follows.

The test system of experiment [1] is Klebsiella oxytoca, Haemophilus influenzae, Streptococcus pneumoniae. The experiment is described as follows: Case 2: pathogen count (nested PCR) and biomarkers in blood before/after antibiotic treatment. The class given is in vivo, human (sepsis patient). Conditions: for BT (body temperature): pretreatment 39.2; for WBC: pretreatment 108.8; for CRP: pretreatment 150.3; for Presepsin: pretreatment 5379; for IL-6: pretreatment 122000; for Pathogen (Ave): pretreatment 175270. The protocol: (§2) First, bacterial cells were collected from a blood specimen by centrifuging the whole blood at a low rate of 100×g for 5 minutes to separate blood cells, centrifuging the resultant supernatant (containing buffy coat) at a high rate of 20,000×g for 10 minutes to obtain a pellet.
(§3) Using DNA of a pathogenic bacterium taken from the blood specimen according to the method of Step 1 as a template, nested PCR (1st PCR: 30 cycle→100 double dilution→2nd PCR: 30 to 35 cycles) is carried out. The bacterial cells in patient specimens vary in a wide range from very small to large number. Since it is difficult to accurately determine the bacterial number in a single cycle of PCR, nested PCR methods are used in combination.
(§4) Subsequently, using pathogenic bacterium DNA of Step 1 as a template, nested PCR was carried out together with a quantification control in the conditions described in Step 2. In the 1st PCR and 2nd PCR for quantification, the following bacterial universal primer (primer for detecting almost all bacteria) was used. The target region of the bacterial universal primer is a bacterial conserved region (base sequence region common in almost all bacteria) of a 16S ribosomal RNA gene. A predetermined bacterium is quantified by a bacterial species-specific primer; however, a pathogenic bacterium is not identified in the early stage of sepsis. Because of this, a bacterial species-specific primer cannot be used. Accordingly, unless a bacterial universal primer is used, an unidentified bacterium cannot be detected.
(§5) As mentioned above, E. coli DNA samples of three different concentrations and of a known bacterial number were used as quantification controls. Based on the data of three quantification controls different in concentration, a calibration curve was prepared. Based on bacterial DNA extracted from a patient specimen, the number of pathogenic bacterial cells was determined. Since the number of bacterial cells was obtained as an E. coli cell-number equivalent used as a quantification control, the number of bacterial cells in a specimen can be more easily, rapidly and accurately determined.
as §1

The next experiment relates to S. pneumoniae. The experiment is described as follows: drug sensitivity test of the pathogenic bacterium from blood culture. The format is cell-based, Streptococcus pneumoniae. Conditions: Case 2, isolate from blood specimen sampled before antibiotic treatment. The protocol: as §1
The test system of the next experiment is K. oxytoca. The description is as above. The format is cell-based, Klebsiella oxytoca. Conditions: Case 2, isolate from blood specimen sampled before antibiotic treatment. The procedure:
as §1

Experiment [2] deals with Escherichia coli. The experiment is described as above. The format is cell-based. Particulars: isolate from blood specimen sampled before antibiotic treatment. The procedure:
as §1
According to Step 1 to Step 5 of Example 1, a pathogenic bacterium rapid identification/quantification test using sepsis patient's specimens (EDTA blood collection tube, 2 mL) was carried out. […] Blood was sampled before treatment with an antibiotic (pretreatment), and 24 hours (after 24 hrs.) and 72 hours (after 72 hrs.) after administration of the antibiotic. At the three points, a pathogenic bacterium rapid identification/quantification test was carried out together with measurement of body temperature, white blood cell count, CRP, presepsin and IL-6. […]

Experiment [3] relates to Escherichia coli. The experiment is described as follows: Case 1: pathogen count (nested PCR) and biomarkers in blood before/after antibiotic treatment. The class given is in vivo, human (sepsis patient). Particulars: for BT (body temperature): pretreatment 37.0; for IL-6: pretreatment 122; for CRP: pretreatment 185.9; for WBC: pretreatment 285.6; for Presepsin: pretreatment 1298; for Pathogen (Ave): pretreatment 1314. The protocol: as §2, §3, §4, §5, §1
Case 1: • person, sepsis associated with urinary tract infection • blood culture/urine culture: Escherichia coli • antibiotic substance: meropenem (sensitive)

Experiment [4] has as its system Escherichia coli. The experiment is described as follows: Case 4: pathogen identification/quantification and biomarkers in blood before/after antibiotic treatment. The format is in vivo, human (sepsis patient). Conditions: for BT (body temperature): pretreatment 37.0; for IL-6: pretreatment 122; for CRP: pretreatment 185.9; for WBC: pretreatment 285.6; for Presepsin: pretreatment 1298; for Pathogen (Ave): pretreatment 1314. The protocol: as §2, §3, §4, §5
For the reason, it is necessary to make a correction based on the operon copy number per bacterium species in order to more accurately determine bacterial number. Since identification and qualification of a pathogenic bacterium are carried out concurrently in Step 3 and Step 4, the number of pathogenic bacterial cells can be corrected based on 16S ribosomal RNA operon copy number of the bacterium identified to computationally obtain the correct number of bacterial cells.
as §1, with “Step 5” for “Step 4”, “rapid identification/quantification” for “rapid quantification”
Case 4: • person, sepsis associated with urinary tract infection • Tm mapping method: Escherichia coli (Dist. value=0.29) • blood culture/urine culture: Escherichia coli • antibiotics substance: meropenem (sensitive)

As to `CO/N=C(\C(=O)N[C@@H]1C(=O)N2C(C(=O)[O-])=C(C[N+]3(C)CCCC3)CS[C@H]12)c1csc(N)n1` [cefepim], the drug sensitivity entry in the experiment with H. influenzae is reported as “sensitive”. Also, in experiment [1] (Case 2, 24 h after antibiotic), the “BT (body temperature)” value turned out to be 36.4 °C, the WBC is listed as 418.1 × 100/μL, the CRP is 240.0 mg/L and the Presepsin is given as 6202 ng/mL. Moreover, in experiment [1] (Case 2, 24 h after antibiotic), the IL-6 is 7400 pg/mL and the “Pathogen (Ave)” value is listed as 31453 cells/ml. Further, in experiment [1] (Case 2, 72 h after antibiotic), the “BT (body temperature)” value came to 36.3 °C, the WBC is on record as 348.7 × 100/μL, the CRP was determined as 145.5 mg/L and the Presepsin is on record as 6060 ng/mL. Besides, in experiment [1] (Case 2, 72 h after antibiotic), the IL-6 is recorded as 168 pg/mL and the “Pathogen (Ave)” value came out at 2066 cells/ml. Besides, in the experiment on S. pneumoniae, the drug sensitivity entry is on record as “medium-level sensitivity”. Also, the drug sensitivity entry in the experiment on K. oxytoca is “sensitive”.

In the case of `C[C@@H](O)[C@H]1C(=O)N2C(C(=O)O)=C(S[C@@H]3CN[C@H](C(=O)N(C)C)C3)[C@H](C)[C@H]12` [meropenem], the drug sensitivity result with Escherichia coli [2] was “sensitive”. In the experiment on Escherichia coli [3] (Case 1, 24 h after antibiotic), the “BT (body temperature)” value came to 37.9 °C, the IL-6 came out at 85.8 pg/mL, the CRP amounted to 223.1 mg/L and the WBC was 301.4 × 100/μL. In addition, in the experiment on Escherichia coli [3] (Case 1, 24 h after antibiotic), the Presepsin is 1729 ng/mL and the “Pathogen (Ave)” value is 248 cells/ml. For the same molecule, in the experiment on Escherichia coli [3] (Case 1, 72 h after antibiotic), the “BT (body temperature)” value amounted to 37.2 °C, the IL-6 stood at 20.7 pg/mL, the CRP was 86.4 mg/L and the WBC was 98.7 × 100/μL. Besides, in the experiment on Escherichia coli [3] (Case 1, 72 h after antibiotic), the Presepsin came out at 1138 ng/mL and the “Pathogen (Ave)” value came to 0 cells/ml. Further, in the experiment with Escherichia coli [4] (Case 4, 24 h after antibiotic), the “BT (body temperature)” value worked out at 37.9 °C, the IL-6 stood at 85.8 pg/mL, the CRP amounted to 223.1 mg/L and the WBC was 301.4 × 100/μL. Moreover, in the experiment on Escherichia coli [4] (Case 4, 24 h after antibiotic), the Presepsin turned out to be 1729 ng/mL and the “Pathogen (Ave)” value amounted to 248 cells/ml. Further, in the experiment on Escherichia coli [4] (Case 4, 72 h after antibiotic), the “BT (body temperature)” value was 37.2 °C, the IL-6 was found to be 20.7 pg/mL, the CRP was 86.4 mg/L and the WBC is recorded as 98.7 × 100/μL. Further, in the experiment on Escherichia coli [4] (Case 4, 72 h after antibiotic), the Presepsin turned out to be 1138 ng/mL and the “Pathogen (Ave)” value came to 0 cells/ml.

These data come from patent publication US20210102239A1, “METHOD FOR DETERMINING BACTERIAL NUMBER IN SPECIMEN” (MITSUI CHEMICALS, INC., priority 2017, published 2021).
